The record followed here is article PMC9370616, “Three New Acrylic Acid Derivatives from Achillea mellifolium as Potential Inhibitors of Urease from Jack Bean and α-Glucosidase from Saccharomyces cerevisiae” (Molecules, 2022).

One may read the IC50 as the concentration that gives 50% inhibition.

In assay [1] the target is α-glucosidase from Saccharomyces cerevisiae. In words: α-Glucosidase inhibition assay (chromogenic method, p-nitrophenyl-α-D-glucopyranoside). Particulars: pH 6.9, 37 °C; read-out: α Glucosidase Inhibition (IC50 ± S.E.M). Format: biochemical. How it is done:
α-glucosidase from Saccharomyces cerevisiae was purchased from Sigma Aldrich. […] The test samples were prepared (200 µg/mL) in DMSO and 10 μL of each sample was added to 20 μL of α-glucosidase solution (prepared in 120 μL of 0.1 M phosphate buffer, pH 6.9) in a 96-well plate format and incubated for 15 min at 37 °C. After incubation, 20 μL p-nitrophenyl-α-D-glucopyranoside (5 mM) solution was added to this mixture and incubated for a further 15 min. Finally, 80 µL of Na2CO3 solution (0.2 M) was added to this solution to stop the reaction and the absorbance was measured at 410 nm with SpectraMax microplate reader, M2. […] The α-glucosidase inhibition (%) was calculated with the help of the following formula:Inhibition (%) = (Absorbance of Control − Absorbance of Sample)/(Absorbance of Control) × 100
The IC50 values of the active samples were calculated using regression equation by plotting % inhibition at various concentrations.

In a further assay the target is T1, jack-bean urease (Canavalia ensiformis, UniProt P07374).
T1 construct: purchased Sigma Aldrich
Put plainly: biochemical. How it is done:
The assay mixture, containing 50 μL (2 mg/mL) of jack-bean urease (purchased from Sigma Aldrich) and 100 μL of different concentration of test compounds, which were previously dissolved in ethanol 20%, was added to 850 μL of 25 mM urea and pre-incubated for 0.5 h in a water bath at 37 °C. The urease reaction was stopped after 30 min incubation by following procedure.
Urease activity was determined by measuring ammonia production using the indophenol method, as described by Weatherburn. After pre-incubation, 500 μL of phenol reagent (1% w/v phenol and 0.005% w/v sodium nitroprusside) and 500 μL of alkali reagent (1% w/v NaOH and 0.075% active chloride NaOCl) were added to 100 μL of incubation mixture and kept at 37 °C for 30 min. The absorbance was measured at 625 nm. All experiments were performed in triplicate in a final volume of 1 mL, and thiourea was used as a standard urease inhibitor.
Percentage inhibitions were calculated using the formula:(100 − (OD sample/OD control) × 100)
The IC50 values were then calculated using GraphPad Prism 5 software.

T1 sequence (P07374 whole entry, looked up): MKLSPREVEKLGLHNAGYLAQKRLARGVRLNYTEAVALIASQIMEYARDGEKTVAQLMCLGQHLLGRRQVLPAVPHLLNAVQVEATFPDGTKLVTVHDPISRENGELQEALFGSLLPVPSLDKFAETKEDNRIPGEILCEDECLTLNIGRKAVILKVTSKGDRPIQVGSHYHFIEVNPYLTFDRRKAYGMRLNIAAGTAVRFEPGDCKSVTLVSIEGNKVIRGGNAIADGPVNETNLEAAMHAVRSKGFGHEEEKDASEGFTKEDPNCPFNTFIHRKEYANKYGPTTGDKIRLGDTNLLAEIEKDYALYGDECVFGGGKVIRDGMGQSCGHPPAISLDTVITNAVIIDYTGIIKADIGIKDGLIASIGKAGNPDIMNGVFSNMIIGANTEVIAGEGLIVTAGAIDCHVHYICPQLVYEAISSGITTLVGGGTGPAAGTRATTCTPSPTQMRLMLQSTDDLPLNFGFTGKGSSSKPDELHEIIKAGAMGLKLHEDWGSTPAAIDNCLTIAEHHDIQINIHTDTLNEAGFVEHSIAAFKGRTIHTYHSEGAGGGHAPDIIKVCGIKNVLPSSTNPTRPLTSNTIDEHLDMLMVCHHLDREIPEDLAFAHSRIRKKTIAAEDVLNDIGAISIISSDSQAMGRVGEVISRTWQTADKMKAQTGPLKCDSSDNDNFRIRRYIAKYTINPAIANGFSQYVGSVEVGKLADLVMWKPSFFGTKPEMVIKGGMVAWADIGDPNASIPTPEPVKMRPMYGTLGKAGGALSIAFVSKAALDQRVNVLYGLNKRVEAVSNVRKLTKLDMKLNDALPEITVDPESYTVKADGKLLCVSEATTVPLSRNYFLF

Turning to `CCOC(=O)/C=C/[C@H]1C(C)=CC(=O)[C@H](OC)C1(C)C` (relative stereo) [Compound 1, ethyl (E)-3-((1S,5R)-5-methoxy-2,6,6-trimethyl-4-oxocyclohex-2-en-1-yl)acrylate], the IC50 stood at 331.47 ± 0.04 µM in assay [1] and 16.87 ± 0.02 µM at jack-bean urease.

As to `COC(=O)/C=C/[C@H]1C(C)=CC(=O)[C@H](OC)C1(C)C` (relative stereo) [Compound 2, methyl (E)-3-((1S,5R)-5-methoxy-2,6,6-trimethyl-4-oxocyclohex-2-en-1-yl)acrylate], the IC50 turned out to be 294.18 ± 0.07 µM in assay [1] and 13.71 ± 0.07 µM at jack-bean urease.

As to `CO[C@H]1C(=O)C=C(C)[C@H](/C=C/C(C)=O)C1(C)C` (relative stereo) [Compound 3, (4S,6R)-6-methoxy-3,5,5-trimethyl-4-((E)-3-oxobut-1-en-1-yl)cyclohex-2-en-1-one], the half-inhibitory concentration (IC50) in assay [1] was 310.68 ± 0.05 µM; at jack-bean urease, 10.46 ± 0.03 µM.
